Measured values as given in ChEMBL document CHEMBL5154881, “Discovery of First-in-Class TAK1-MKK3 Protein-Protein Interaction (PPI) Inhibitor (R)-STU104 for the Treatment of Ulcerative Colitis through Modulating TNF-α Production” (J Med Chem, 2022).

Experiments:
[1] = tested on: RAW264.7; assay: Inhibition of LPS-induced TNFalpha production in mouse RAW264.7 cells preincubated for 2 hrs followed by LPS treatment for 24 hrs by RT-qPCR analysis; assay type: functional, cell-based
[2] = Metabolic stability in mouse liver microsomes assessed as intrinsic clearance; assay type: ADME, Microsome
[3] = AUC (0 to t) in 12 hr starved C57 mouse at 5 mg/kg, iv measured for 0.083 to 24 hrs post-dose by LC-MS-MS analysis; assay type: ADME, organism-based; parameters: time lower 0.083 hrs, dose 5 mg/kg, time upper 24 hrs, route iv; conditions: in vivo
[4] = Half life in 12 hr starved C57 mouse at 5 mg/kg, iv measured for 0.083 to 24 hrs post-dose by LC-MS-MS analysis; assay type: ADME, organism-based; conditions: in vivo, time 0.083-24 hrs
[5] = AUC (0 to infinity) in 12 hr starved C57 mouse at 30 mg/kg, po measured for 0.083 to 24 hrs post-dose by LC-MS-MS analysis; assay type: ADME, organism-based; parameters: time upper 24 hrs, dose 30 mg/kg, time lower 0.083 hrs, route po; conditions: in vivo
[6] = Apparent volume of distribution in 12 hr starved C57 mouse at 30 mg/kg, po measured for 0.083 to 24 hrs post-dose by LC-MS-MS analysis; assay type: ADME, organism-based; conditions: in vivo, time 0.083-24 hrs
[7] = tested on: Mus musculus; assay: Anti-ulcerative colitis activity in DSS-induced C57BL/6 mouse ulcerative colitis model assessed as histopathological score recovery ratio at 1 mg/kg, IG via gavage measured after 7 days by H and E staining method relative to control; assay type: functional; conditions: time 7 day
[8] = tested on: Mus musculus; assay: Anti-ulcerative colitis activity in DSS-induced C57BL/6 mouse ulcerative colitis model assessed as histopathological score recovery ratio at 10 mg/kg, IG via gavage measured after 7 days by H and E staining method relative to control; assay type: functional; conditions: time 7 day
[9] = tested on: Mus musculus; assay: Antiinflammatory activity against DSS-induced C57BL/6 mouse model of acute ulcerative colitis assessed as inhibition ratio of IL-1beta protein expression at 3 mg/kg, IG via gavage measured after 7 days by ELISA relative to control; assay type: functional; parameters: scale not given: the % may be the effect or the level left; conditions: time 7 day
[10] = tested on: Mus musculus; assay: Antiinflammatory activity against DSS-induced C57BL/6 mouse model of acute ulcerative colitis assessed as inhibition ratio of IL-1beta protein expression at 10 mg/kg, IG via gavage measured after 7 days by ELISA relative to control; assay type: functional; parameters: scale not given: the % may be the effect or the level left; conditions: time 7 day
[11] = tested on: Mus musculus; assay: Antiinflammatory activity against DSS-induced C57BL/6 mouse model of acute ulcerative colitis assessed as inhibition ratio of IL-23 protein expression at 1 mg/kg, IG via gavage measured after 7 days by ELISA relative to control; assay type: functional; parameters: scale not given: the % may be the effect or the level left; conditions: time 7 day
[12] = tested on: Mus musculus; assay: Anti-ulcerative colitis activity in IL-10-/- C57BL/6 mouse model of ulcerative colitis assessed as body weight recovery ratio at 10 mg/kg, IG via gavage for 8 weeks and measured everyday relative to control; assay type: functional
[13] = tested on: Mus musculus; assay: Antiinflammatory activity against IL-10-/- C57BL/6 mouse model of ulcerative colitis assessed as inhibition ratio of IL-6 protein expression at 1 mg/kg, IG via gavage and measured after 8 weeks by ELISA relative to control; assay type: functional; parameters: scale not given: the % may be the effect or the level left
[14] = tested on: Mus musculus; assay: Antiinflammatory activity against IL-10-/- C57BL/6 mouse model of ulcerative colitis assessed as inhibition ratio of IL-6 protein expression at 3 mg/kg, IG via gavage and measured after 8 weeks by ELISA relative to control; assay type: functional; parameters: scale not given: the % may be the effect or the level left
[15] = tested on: Mus musculus; assay: Antiinflammatory activity against IL-10-/- C57BL/6 mouse model of ulcerative colitis assessed as inhibition ratio of IL-6 protein expression at 10 mg/kg, IG via gavage and measured after 8 weeks by ELISA relative to control; assay type: functional; parameters: scale not given: the % may be the effect or the level left
[16] = tested on: Mus musculus; assay: Antiinflammatory activity against IL-10-/- C57BL/6 mouse model of ulcerative colitis assessed as inhibition ratio of TNF-alpha mRNA expression in colon tissue at 3 mg/kg, IG via gavage and measured after 8 weeks by RT-qPCR analysis relative to control; assay type: functional; parameters: scale not given: the % may be the effect or the level left
[17] = tested on: Mus musculus; assay: Antiinflammatory activity against IL-10-/- C57BL/6 mouse model of ulcerative colitis assessed as inhibition ratio of IL-1beta mRNA expression in colon tissue at 1 mg/kg, IG via gavage and measured after 8 weeks by RT-qPCR analysis relative to control; assay type: functional; parameters: scale not given: the % may be the effect or the level left
[18] = tested on: RAW264.7; assay: Inhibition of MKK3-p38-elF4E signaling pathway in mouse RAW264.7 cells assessed as reduction in LPS-induced Mnk1 phosphorylation treated for 1.5 hrs followed by LPS treatment for 1 hr by Western blot analysis; assay type: cell-based; conditions: dose 3.125-12.5 µmol/L, time 2.5 hrs, DDE = dose-dependent effect
[19] = tested on: RAW264.7; assay: Inhibition of MKK3-p38-elF4E signaling pathway in mouse RAW264.7 cells assessed as reduction in LPS-induced MK2 phosphorylation treated for 1.5 hrs followed by LPS treatment for 1 hr by Western blot analysis; assay type: cell-based; conditions: dose 3.125-12.5 µmol/L, time 2.5 hrs, DDE = dose-dependent effect
[20] = target: T1, Dual specificity mitogen-activated protein kinase kinase 3 (Mus musculus) (UniProt O09110); assay: Binding affinity to MKK3 in mouse RAW264.7 cells assessed as increase in thermal stability by measuring change in melting temperature at 6.25 uM incubated for 24 hrs by CETSA; assay type: cell-based
T1 sequence (whole entry): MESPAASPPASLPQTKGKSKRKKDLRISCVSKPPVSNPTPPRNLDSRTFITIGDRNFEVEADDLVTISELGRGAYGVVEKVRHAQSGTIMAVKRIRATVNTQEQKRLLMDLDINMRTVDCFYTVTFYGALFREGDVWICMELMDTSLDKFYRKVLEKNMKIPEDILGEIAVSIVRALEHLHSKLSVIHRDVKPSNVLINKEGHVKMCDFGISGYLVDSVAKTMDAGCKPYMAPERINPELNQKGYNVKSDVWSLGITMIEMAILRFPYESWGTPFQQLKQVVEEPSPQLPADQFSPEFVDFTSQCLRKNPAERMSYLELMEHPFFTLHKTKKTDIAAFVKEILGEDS

[21] = Toxicity in C57 mouse assessed as body weight loss at 50 to 500 mg/kg, po administered daily for 14 days; assay type: organism-based; conditions: in vivo, 336 h, dose 50-500 mg/kg, time 14 day
[22] = Toxicity in C57 mouse assessed as liver damage at 50 to 500 mg/kg, po administered daily for 14 days; assay type: organism-based; conditions: in vivo, 336 h, dose 50-500 mg/kg, time 14 day
[23] = Toxicity in C57 mouse assessed as kidney damage at 50 to 500 mg/kg, po administered daily for 14 days; assay type: organism-based; conditions: in vivo, 336 h, dose 50-500 mg/kg, time 14 day
[24] = tested on: Mus musculus; assay: Anti-ulcerative colitis activity against DSS-induced ulcerative colitis C57BL/6 mouse model assessed as reduction in DAI score at 3 mg/kg, IG via gavage administered for 7 days and measured everyday (reference value: 4.0); assay type: functional; conditions: time 7 day
[25] = tested on: Mus musculus; assay: Antiinflammatory activity against DSS-induced C57BL/6 mouse model of acute ulcerative colitis assessed as inhibition of IL-1beta mRNA expression in colon tissue administered intragastrically via gavage measured after 7 days by RT-qPCR analysis; assay type: functional, organism-based; conditions: route ig, time 7.0 day, DDE = dose-dependent effect
[26] = tested on: Mus musculus; assay: Antiinflammatory activity against DSS-induced C57BL/6 mouse model of acute ulcerative colitis assessed as inhibition of IL-6 mRNA expression in colon tissue administered intragastrically via gavage measured after 7 days by RT-qPCR analysis; assay type: functional, organism-based; conditions: route ig, time 7.0 day, DDE = dose-dependent effect
[27] = tested on: Mus musculus; assay: Antiinflammatory activity against IL-10-/- C57BL/6 mouse model of acute ulcerative colitis assessed as decrease in serum IL-6 levels administered intragastrically via gavage measured after 8 weeks by ELISA; assay type: functional, organism-based; conditions: dose 3-10 mg/kg, route ig, DDE = dose-dependent effect

COc1ccc([C@H]2CC(=O)c3cc(OC)cc(OC)c32)cc1
IC50 [1]: 0.58 µM
CLH [2]: 1730.2 mL/min/g
AUC(0-t) [3]: 7.25 µg·h/mL
half-life [4]: 9.29 h
AUC [5]: 16.991 µg·h/mL
Vz [6]: 3.68 L/kg
Activity [7]: 25%
Activity [8]: 70%
Activity [9]: 60.8%
Activity [10]: 64.4%
Activity [11]: 46.2%
Activity [12]: 19.4%
Activity [13]: 31.4%
Activity [14]: 44.5%
Activity [15]: 57.6%
Activity [16]: 69.5%
Activity [17]: 22.8%
inhibition [18]: Dde
inhibition [19]: Dde
ΔTm [20]: 2 °C
Activity [21]: Non-Toxic
Activity [22]: Non-Toxic
Activity [23]: Non-Toxic
Activity [24]: 2.4
Activity [25]: Dde
Activity [26]: Dde
Activity [27]: Dde
